Calls of active or inactive are those of the source. The rule behind the calls is not given here.
Assays:
Type in all cases: functional, organism-based
Rattus norvegicus [1] = experiment: Ratio of ovulated rats to total number of rats determined in a anti-ovulatory assay by administering 10 microg of compound; 8/8
Rattus norvegicus [2] = experiment: Ratio of ovulated rats to total number of rats determined in a anti-ovulatory assay by administering 25 microg of compound; 6/8
Rattus norvegicus [3] = experiment: Ratio of ovulated rats to total number of rats determined in a anti-ovulatory assay by administering 5 microg of compound; 1/8
Rattus norvegicus [4] = experiment: Ratio of ovulated rats to total number of rats determined in a anti-ovulatory assay by administering 10 ug of compound; 0/8
Rattus norvegicus [5] = experiment: Ratio of ovulated rats to total number of rats determined in a anti-ovulatory assay by administering 2.5 microg of compound; 0/8
Rattus norvegicus [6] = experiment: Ratio of ovulated rats to total number of rats determined in a anti-ovulatory assay by administering 1 microg of compound; 1/8
Rattus norvegicus [7] = experiment: Ratio of ovulated rats to total number of rats determined in a anti-ovulatory assay by administering 10 microg of compound; 3/7
Rattus norvegicus [8] = experiment: Ratio of ovulated rats to total number of rats determined in a anti-ovulatory assay by administering 2.5 microg of compound; 0/7
Rattus norvegicus [9] = experiment: Ratio of ovulated rats to total number of rats determined in a anti-ovulatory assay by administering 0.5 microg of compound; 6/7
Rattus norvegicus [10] = experiment: Ratio of ovulated rats to total number of rats determined in a anti-ovulatory assay by administering 1 microg of compound; 5/13

SMILES: CC(=O)Nc1ccc(C[C@H](NC(=O)[C@H](CO)NC(=O)[C@@H](NC(=O)[C@@H](Cc2ccc(Cl)cc2)NC(=O)[C@@H](Cc2ccc3ccccc3c2)NC(C)=O)N(C)C(=O)c2cccnc2)C(=O)N[C@H](Cc2ccc(NC(C)=O)cc2)C(=O)N[C@@H](CC(C)C)C(=O)N[C@@H](CCCCNC(C)C)C(=O)N2CCC[C@@H]2C(=O)N[C@H](C)C(N)=O)cc1 (single isomer, unassigned)
- ov. rat/total (Rattus norvegicus [1]): inactive
- ov. rat/total (Rattus norvegicus [2]): inactive

SMILES: CC(=O)Nc1ccc(C[C@H](NC(=O)[C@H](CO)NC(=O)[C@H](Cc2cccnc2)NC(=O)[C@@H](Cc2ccc(Cl)cc2)NC(=O)[C@@H](Cc2ccc3ccccc3c2)NC(C)=O)C(=O)N[C@H](Cc2ccc(NC(C)=O)cc2)C(=O)N[C@@H](CC(C)C)C(=O)N[C@@H](CCCCNC(C)C)C(=O)N2CCC[C@@H]2C(=O)N[C@H](C)C(N)=O)cc1
- ov. rat/total (Rattus norvegicus [3]): Active
- ov. rat/total (Rattus norvegicus [4]): Active

SMILES: CC(=O)Nc1ccc(C[C@H](NC(=O)[C@H](CO)NC(=O)[C@@H](Cc2cccnc2)NC(=O)[C@@H](Cc2ccc(Cl)cc2)NC(=O)[C@@H](Cc2ccc3ccccc3c2)NC(C)=O)C(=O)N[C@H](Cc2ccc(NC(C)=O)cc2)C(=O)N[C@@H](CC(C)C)C(=O)N[C@@H](CCCCNC(C)C)C(=O)N2CCC[C@@H]2C(=O)N[C@H](C(N)=O)N(C)C=O)cc1
- ov. rat/total (Rattus norvegicus [5]): Active
- ov. rat/total (Rattus norvegicus [6]): inactive

SMILES: CC(=O)Nc1ccc(C[C@H](NC(=O)[C@H](CO)NC(=O)[C@H](NC(=O)c2ccncc2)NC(=O)[C@@H](Cc2ccc(Cl)cc2)NC(=O)[C@@H](Cc2ccc3ccccc3c2)NC(C)=O)C(=O)N[C@H](Cc2ccc(NC(C)=O)cc2)C(=O)N[C@@H](CC(C)C)C(=O)N[C@@H](CCCCNC(C)C)C(=O)N2CCC[C@@H]2C(=O)N[C@H](C)C(N)=O)cc1 (single isomer, unassigned)
- ov. rat/total (Rattus norvegicus [7]): Partially active

SMILES: CC(=O)Nc1ccc(C[C@H](NC(=O)[C@H](CO)NC(=O)[C@@H](Cc2cccnc2)NC(=O)[C@@H](Cc2ccc(Cl)cc2)NC(=O)[C@@H](Cc2ccc3ccccc3c2)NC(C)=O)C(=O)N[C@H](Cc2ccc(NC(C)=O)cc2)C(=O)N[C@@H](CC(C)C)C(=O)N[C@@H](CCCCNC(C)C)C(=O)N2CCC[C@@H]2C(=O)N[C@H](C)C(N)=O)cc1
- ov. rat/total (Rattus norvegicus [8]): Active
- ov. rat/total (Rattus norvegicus [9]): inactive
- ov. rat/total (Rattus norvegicus [10]): Partially active
